#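 Protocol summary: plate cells (96-well), add compound at 5 concentrations, incubate 48 h, interpolate endpoints linearly. GI50 marks 50% less growth. The concentration for full growth arrest is given as TGI.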
# Legend:
# Assay in all cases: DTP human tumour cell line panel, 48 h
# [1] = tested on: OVCAR-3 ovarian
# [2] = tested on: MALME-3M melanoma
# [3] = tested on: SF-268 CNS
# [4] = tested on: HCT-15 colon
# [5] = tested on: OVCAR-8 ovarian
# [6] = tested on: HCC-2998 colon
# [7] = tested on: A549 NSCLC
# [8] = tested on: SW-620 colon
# [9] = tested on: SK-MEL-28 melanoma
# [10] = tested on: UO-31 renal
# [11] = tested on: MCF7 breast
# [12] = tested on: KM12 colon
# [13] = tested on: HOP-92 NSCLC
# [14] = tested on: NCI-H460 lung
# [15] = tested on: CAKI-1 renal
# [16] = tested on: EKVX NSCLC
# [17] = tested on: CCRF-CEM leukemia
# [18] = tested on: T-47D breast
# [19] = tested on: SK-OV-3 ovarian
# [20] = tested on: SK-MEL-2 melanoma
# [21] = tested on: SNB-19 CNS
# [22] = tested on: UACC-62 melanoma
# [23] = tested on: DU-145 prostate
# [24] = tested on: BT-549 breast
# [25] = tested on: RXF 393 renal
# [26] = tested on: SK-MEL-5 melanoma
# [27] = tested on: OVCAR-5 ovarian
# [28] = tested on: PC-3 prostate
# [29] = tested on: MDA-MB-231 breast
# [30] = tested on: SNB-75 CNS
# [31] = tested on: HOP-62 NSCLC
# [32] = tested on: IGROV1 ovarian
# [33] = tested on: HS 578T breast
# [34] = tested on: U251 CNS
# [35] = tested on: HT29 colon
# [36] = tested on: NCI-H226 lung
# [37] = tested on: RPMI-8226 leukemia
# [38] = tested on: NCI-H522 lung
# [39] = tested on: M14 melanoma
# [40] = tested on: SF-295 CNS
# [41] = tested on: SF-539 CNS
# [42] = tested on: SN12C renal
# [43] = tested on: OVCAR-4 ovarian
# [44] = tested on: MOLT-4 leukemia
# [45] = tested on: NCI-H23 lung
# [46] = tested on: UACC-257 melanoma
# [47] = tested on: 786-0 renal
# [48] = tested on: NCI/ADR-RES ovarian
# [49] = tested on: LOX IMVI melanoma
# [50] = tested on: MDA-MB-435
# [51] = tested on: ACHN renal
# [52] = tested on: COLO 205 colon
# [53] = tested on: TK-10 renal
# [54] = tested on: A498 renal
# [55] = tested on: HCT-116 colon
# [56] = tested on: HL-60(TB) leukemia
# [57] = tested on: K-562 leukemia
# [58] = tested on: SR leukemia
structure (smiles),measurement,setting,value
Cc1ccccc1NC(=O)NC(CC(N)=O)c1ccc2c(c1)nc(-c1cccc(Oc3ccc(C(C)(C)C)cc3)c1)n2CCCN1CCCCC1C (stereo unspecified),GI50,[1],2.57 µM
same,TGI,[1],6.35 µM
same,GI50,[2],1.88 µM
same,TGI,[2],3.98 µM
same,GI50,[3],1.88 µM
same,TGI,[3],3.88 µM
same,GI50,[4],12.5 µM
same,TGI,[4],27.1 µM
same,GI50,[5],2.44 µM
same,TGI,[5],6.63 µM
same,GI50,[6],2.23 µM
same,TGI,[6],5.04 µM
same,GI50,[7],5.54 µM
same,TGI,[7],14.6 µM
same,GI50,[8],1.84 µM
same,TGI,[8],3.49 µM
same,GI50,[9],1.89 µM
same,TGI,[9],3.51 µM
same,GI50,[10],16.4 µM
same,TGI,[10],31.9 µM
same,GI50,[11],1.92 µM
same,TGI,[11],3.54 µM
same,GI50,[12],2.34 µM
same,TGI,[12],5.63 µM
same,GI50,[13],1.94 µM
same,TGI,[13],7.33 µM
same,GI50,[14],2 µM
same,TGI,[14],3.87 µM
same,GI50,[15],17.2 µM
same,TGI,[15],42.8 µM
same,GI50,[16],5.37 µM
same,TGI,[16],11.5 µM
same,GI50,[17],3.03 µM
same,TGI,[17],15.1 µM
same,GI50,[18],2.6 µM
same,TGI,[18],10.5 µM
same,GI50,[19],10.9 µM
same,TGI,[19],23.9 µM
same,GI50,[20],11.1 µM
same,TGI,[20],23.3 µM
same,GI50,[21],1.97 µM
same,TGI,[21],4.27 µM
same,GI50,[22],1.71 µM
same,TGI,[22],3.22 µM
same,GI50,[23],5.4 µM
same,TGI,[23],13.6 µM
same,GI50,[24],13.3 µM
same,TGI,[24],26.1 µM
same,GI50,[25],2.91 µM
same,TGI,[25],7.13 µM
same,GI50,[26],1.73 µM
same,TGI,[26],3.19 µM
same,GI50,[27],5.21 µM
same,TGI,[27],12 µM
same,GI50,[28],3.94 µM
same,TGI,[28],12 µM
same,GI50,[29],2.34 µM
same,TGI,[29],5.27 µM
same,GI50,[30],2.41 µM
same,TGI,[30],6.5 µM
same,GI50,[31],1.97 µM
same,TGI,[31],4.46 µM
same,GI50,[32],3.25 µM
same,TGI,[32],9.82 µM
same,GI50,[33],5.58 µM
same,TGI,[33],16.3 µM
same,GI50,[34],1.75 µM
same,TGI,[34],3.23 µM
same,GI50,[35],1.95 µM
same,TGI,[35],3.89 µM
same,GI50,[36],7.9 µM
same,TGI,[36],25.7 µM
same,GI50,[37],2.49 µM
same,TGI,[37],6.48 µM
same,GI50,[38],1.88 µM
same,TGI,[38],3.57 µM
same,GI50,[39],1.83 µM
same,TGI,[39],3.44 µM
same,GI50,[40],4.25 µM
same,TGI,[40],9.57 µM
same,GI50,[41],1.82 µM
same,TGI,[41],3.77 µM
same,GI50,[42],4.49 µM
same,TGI,[42],11.1 µM
same,GI50,[43],3.07 µM
same,TGI,[43],8.39 µM
same,GI50,[44],3.39 µM
same,TGI,[44],9.65 µM
same,GI50,[45],4.89 µM
same,TGI,[45],9.91 µM
same,GI50,[46],1.86 µM
same,TGI,[46],3.49 µM
same,GI50,[47],4.19 µM
same,TGI,[47],8.66 µM
same,GI50,[48],28 µM
same,TGI,[48],> 85.9 µM
same,GI50,[49],1.67 µM
same,TGI,[49],3.14 µM
same,GI50,[50],1.72 µM
same,TGI,[50],3.3 µM
same,GI50,[51],9.08 µM
same,TGI,[51],22.3 µM
same,GI50,[52],1.82 µM
same,TGI,[52],3.35 µM
same,GI50,[53],4.28 µM
same,TGI,[53],9.01 µM
same,GI50,[54],5.91 µM
same,TGI,[54],13.4 µM
same,GI50,[55],1.71 µM
same,TGI,[55],3.16 µM
O=C(/C=N/O)c1c(-c2ccccc2)[nH]c(-c2ccccc2)c1-c1ccccc1,TGI,[1],58.7 µM
same,TGI,[2],32.9 µM
same,TGI,[3],49.7 µM
same,TGI,[4],45.8 µM
same,TGI,[6],58.1 µM
same,TGI,[7],45.2 µM
same,TGI,[8],48.7 µM
same,TGI,[9],39 µM
same,TGI,[10],36.3 µM
same,TGI,[11],39.7 µM
same,TGI,[12],28.2 µM
same,TGI,[13],67.1 µM
same,TGI,[14],41.8 µM
same,TGI,[15],48.1 µM
same,TGI,[16],19 µM
same,TGI,[17],> 100 µM
same,TGI,[18],> 100 µM
same,TGI,[19],35.1 µM
same,TGI,[20],24 µM
same,TGI,[56],> 100 µM
same,TGI,[57],> 100 µM
same,TGI,[21],34.2 µM
same,TGI,[22],28.7 µM
same,TGI,[23],12.3 µM
same,TGI,[24],11.3 µM
same,TGI,[25],31.6 µM
same,TGI,[26],32.8 µM
same,TGI,[27],21.7 µM
same,TGI,[29],28.7 µM
same,TGI,[30],55.7 µM
same,TGI,[31],> 100 µM
same,TGI,[32],28.4 µM
same,TGI,[33],85.2 µM
same,TGI,[34],32.3 µM
same,TGI,[35],61 µM
same,TGI,[36],83.4 µM
same,TGI,[37],31.4 µM
same,TGI,[38],30.8 µM
same,TGI,[39],73.6 µM
same,TGI,[40],34.2 µM
same,TGI,[41],26.9 µM
same,TGI,[42],35.2 µM
same,TGI,[43],42.9 µM
same,TGI,[44],31.1 µM
same,TGI,[45],21.3 µM
same,TGI,[46],35 µM
same,TGI,[47],> 100 µM
same,TGI,[48],25.5 µM
same,TGI,[49],41.3 µM
same,TGI,[50],28.3 µM
same,TGI,[51],43.4 µM
same,TGI,[52],36.6 µM
same,TGI,[53],40.8 µM
same,TGI,[54],62.4 µM
same,TGI,[55],72.6 µM
COC(=O)CP1(=O)OC2C(C3CCC2(C)C3(C)C)N1c1cc(C(F)(F)F)cc(C(F)(F)F)c1 (stereo unspecified),TGI,[1],34.4 µM
same,TGI,[2],58.1 µM
same,TGI,[3],82.1 µM
same,TGI,[4],97.5 µM
same,TGI,[5],> 100 µM
same,TGI,[6],55.2 µM
same,TGI,[7],> 100 µM
same,TGI,[8],88.3 µM
same,TGI,[9],> 100 µM
same,TGI,[10],> 100 µM
same,TGI,[11],> 100 µM
same,TGI,[12],54.7 µM
same,TGI,[14],86.2 µM
same,TGI,[15],83.1 µM
same,TGI,[16],> 100 µM
same,TGI,[18],71 µM
same,TGI,[19],80.5 µM
same,TGI,[20],46.4 µM
same,TGI,[57],68.3 µM
same,TGI,[21],> 100 µM
same,TGI,[22],> 100 µM
same,TGI,[23],> 100 µM
same,TGI,[24],71.8 µM
same,TGI,[26],> 100 µM
same,TGI,[27],> 100 µM
same,TGI,[28],74.9 µM
same,TGI,[29],43.7 µM
same,TGI,[30],51.9 µM
same,TGI,[31],85.7 µM
same,TGI,[32],> 100 µM
same,TGI,[34],> 100 µM
same,TGI,[35],> 100 µM
same,TGI,[36],71.7 µM
same,TGI,[37],42.5 µM
same,TGI,[39],> 100 µM
same,TGI,[40],48.2 µM
same,TGI,[41],45.8 µM
same,TGI,[43],> 100 µM
same,TGI,[58],62.6 µM
same,TGI,[44],59 µM
same,TGI,[45],86.3 µM
same,TGI,[46],> 100 µM
same,TGI,[47],41.7 µM
same,TGI,[48],55.9 µM
same,TGI,[49],49 µM
same,TGI,[50],60.6 µM
same,TGI,[51],> 100 µM
same,TGI,[52],49.1 µM
same,TGI,[53],75.2 µM
same,TGI,[54],> 100 µM
same,TGI,[55],40.7 µM

# Reference: PubChem BioAssay (NCI)
